Ki data for 15 molecules are collected here from patent US10071998B2, “Iminothiadiazine dioxides bearing an amine-linked substituent as BACE inhibitors, compositions, and their use” (Merck Sharp & Dohme Corp., priority 2015, dated 2018).

Where two headings read alike, the source gives them in different places.

Experiment [1] addresses Recombinant human soluble BACE-1 catalytic domain (Homo sapiens (Human), UniProt P56817). Put plainly: BACE-1 Ki Assay (BACE-1 HTRF FRET Assay). In kind it is biochemical. The protocol: Assay 1: BACE-1 Ki Assay (BACE-1 HTRF FRET Assay)
The compounds of the invention were assessed for their ability to inhibit BACE-1 using the following assay.
The following reagents were used in this assay. Na^+-Acetate pH 5.0; 1% Brij-35; Glycerol; Dimethyl Sulfoxide (DMSO); Recombinant human soluble BACE-1 catalytic domain (>95% pure); APP Swedish mutant peptide substrate (QSY7-APP^swe-Eu): QSY7-EISEVNLDAEFC-Europium-amide.
A homogeneous time-resolved FRET assay can be used to determine IC50 values for inhibitors of the soluble human BACE-1 catalytic domain. This assay monitors the increase of 620 nm fluorescence that resulted from BACE-1 cleavage of an APPswedish APP^swe mutant peptide FRET substrate (QSY7-EISEVNLDAEFC-Europium-amide). This substrate contains an N-terminal QSY7 moiety that serves as a quencher of the C-terminal Europium fluorophore (620 nm Em). In the absence of enzyme activity, 620 nm fluorescence is low in the assay and increased linearly over 3 hours in the presence of uninhibited BACE-1 enzyme. Inhibition of BACE-1 cleavage of the QSY7-APP^swe-Eu substrate by inhibitors is manifested as a suppression of 620 nm fluorescence.
Varying concentrations of inhibitors at 3× the final desired concentration in a volume of 10 ul are preincubated with purified human BACE-1 catalytic domain (3 nM in 10 μl) for 30 minutes at 30° C. in reaction buffer containing 20 mM Na-Acetate pH 5.0, 10% glycerol, 0.1% Brij-35 and 7.5% DSMO. Reactions are initiated by addition of 10 μl of 600 nM QSY7-APP^swe-Eu substrate (200 nM final) to give a final reaction volume of 30 μl in a 384 well Nunc HTRF plate. The reactions are incubated at 30° C. for 1.5 hours. The 620 nm fluorescence is then read on a Rubystar HTRF plate reader (BMG Labtechnologies) using a […] delay followed by a 400 millisecond acquisition time window. Inhibitor IC50 values are derived from non-linear regression analysis of concentration response curves. Ki values are then calculated from IC50 values using the Cheng-Prusoff equation using a previously determined […] of 8 μM for the QSY7-APP^swe-Eu substrate at BACE-1. The example compounds of the invention were measured in this assay.

Experiment [2] has as its target purified human autoBACE-2 (Homo sapiens (Human), UniProt Q9Y5Z0). Put plainly: BACE-2 Assay (BACE-HTRF assay). The experiment is classed as biochemical. As to conditions: Table 1; Ki calculated from IC50 with Cheng-Prusoff equation; read-out: BACE2 Ki. The protocol:
Inhibitor IC50s, at purified human autoBACE-2 are determined in a time-resolved endpoint proteolysis assay that measures hydrolysis of the QSY7-EISEVNLDAEFC-Eu-amide FRET peptide substrate (BACE-HTRF assay). BACE-mediated hydrolysis of this peptide results in an increase in relative fluorescence (RFU) at 620 nm after excitation with 320 nm light. Inhibitor compounds, prepared at 3× the desired final concentration in 1× BACE assay buffer (20 mM sodium acetate pH 5.0, 10% glycerol, 0.1% Brij-35) supplemented with 7.5% DMSO are pre-incubated with an equal volume of autoBACE-2 enzyme diluted in 1×BACE assay buffer (final enzyme concentration 1 nM) in black 384-well NUNC plates for 30 minutes at 30° C. The assay is initiated by addition of an equal volume of the QSY7-EISEVNLDAEFC-Eu-amide substrate (200 nM final concentration, Km=8 μM […] for autoBACE-2) prepared in 1×BACE assay buffer supplemented with 7.5% DMSO and incubated for 90 minutes at 30° C. DMSO is present at 5% final concentration in the assay. Following laser excitation of sample wells at 320 nm, the fluorescence signal at 620 nm is collected for 400 ms following a 50 μs delay on a RUBYstar HTRF plate reader (BMG Labtechnologies). Raw RFU data is normalized to maximum (1.0 nM BACE/DMSO) and minimum (no enzyme/DMSO) RFU values. IC50 values are determined by nonlinear regression analysis (sigmoidal dose response, variable slope) of percent inhibition data with minimum and maximum values set to 0 and 100 percent respectively. Similar IC50s are obtained when using raw RFU data. The Ki values are calculated from the IC50 using the Cheng-Prusoff equation.

Setting [3] is: Table 3, comparator compounds of WO2011044181, read-out: BACE-1 Ki Nm.
The mark [4] stands for this setting: Table 1, Ki calculated from IC50 with Cheng-Prusoff equation, read-out: BACE1 Ki.

Sequence of purified human autoBACE-2 (Q9Y5Z0 63-473): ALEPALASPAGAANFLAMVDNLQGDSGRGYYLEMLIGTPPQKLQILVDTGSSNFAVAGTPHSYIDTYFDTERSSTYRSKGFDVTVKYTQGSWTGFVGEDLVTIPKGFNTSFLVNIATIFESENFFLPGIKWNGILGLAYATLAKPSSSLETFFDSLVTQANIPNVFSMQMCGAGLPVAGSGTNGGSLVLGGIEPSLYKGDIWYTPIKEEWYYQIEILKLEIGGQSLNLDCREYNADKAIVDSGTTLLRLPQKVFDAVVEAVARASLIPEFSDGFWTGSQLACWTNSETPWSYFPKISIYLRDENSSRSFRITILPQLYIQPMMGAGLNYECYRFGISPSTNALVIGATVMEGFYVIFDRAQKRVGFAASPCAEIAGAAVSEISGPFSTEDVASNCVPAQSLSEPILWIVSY
Sequence of Recombinant human soluble BACE-1 catalytic domain (P56817 75-416): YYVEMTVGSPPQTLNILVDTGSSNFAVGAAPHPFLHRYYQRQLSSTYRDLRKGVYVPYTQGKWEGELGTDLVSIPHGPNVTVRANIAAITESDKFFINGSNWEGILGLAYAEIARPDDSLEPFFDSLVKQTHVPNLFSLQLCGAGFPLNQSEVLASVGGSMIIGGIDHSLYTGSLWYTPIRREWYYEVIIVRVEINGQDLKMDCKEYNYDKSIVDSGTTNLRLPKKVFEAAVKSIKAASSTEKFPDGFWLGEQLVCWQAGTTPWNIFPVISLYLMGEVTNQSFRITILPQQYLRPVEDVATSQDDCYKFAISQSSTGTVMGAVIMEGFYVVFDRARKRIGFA

On to `CN1C(=N)N[C@](C)(c2cc(Nc3cccc4c3OC(F)(F)O4)ccc2F)CS1(=O)=O` [103 (Scheme 18), reference compound], for which, in experiment [1] (setting [3]), the Ki was 42 nM.
Take `COc1ccccc1Nc1cccc([C@]2(C)CS(=O)(=O)N(C)C(=N)N2)c1` [103a (Table IXa), reference compound]: in experiment [1] (setting [3]), the Ki worked out at 69 nM.
`CN1C(=N)N[C@](C)(c2cccc(Nc3ccccc3C#N)n2)CS1(=O)=O` [103b (Table IXa), reference compound]: the Ki in experiment [1] (setting [3]) is 514 nM.
`COc1ccccc1Nc1cccc([C@]2(C)CS(=O)(=O)N(C)C(=N)N2)n1` [162 (Scheme 40), reference compound]: the inhibition constant (Ki) in experiment [1] (setting [3]) was determined as 3760 nM.
On the same count and under the same terms, the value for `CN1C(=N)N[C@](C)(c2cccc(Nc3cccc4c3OC(F)(F)O4)n2)CS1(=O)=O` [163 (Table XXI), reference compound] was 4700 nM; that for `CN1C(=N)N[C@](C)(c2cccc(Nc3ncccc3C#N)n2)CS1(=O)=O` [164 (Table XXI), reference compound] was 508 nM.
Still for that read-out and setting: with `COc1cccnc1Nc1cccc([C@]2(C)CS(=O)(=O)N(C)C(=N)N2)n1` [165 (as listed on page 224), reference compound] the figure was 2590 nM; with `COc1cccnc1Nc1cc([C@]2(C)CS(=O)(=O)N(C)C(=N)N2)ccn1` [166 (Table XXI), reference compound], 41 nM.
As for `COc1ccccc1Nc1cc([C@]2(C)CS(=O)(=O)N(C)C(=N)N2)ccn1` [167 (Table XXI), reference compound], the inhibition constant (Ki) in experiment [1] (setting [3]) amounted to 344 nM.
`CN1C(=N)N[C@](C)(c2cc(Nc3nccc4cc(Cl)cnc34)ccc2F)CS1(=O)=O` [Example 1, 3-chloro-N-{4-fluoro-3-[(5R)-3-imino-2,5-dimethyl-1,1-dioxido-1,2,4-thiadiazinan-5-yl]phenyl}-1,7-naphthyridin-8-amine]: the Ki in experiment [1] (setting [4]) is 1.2 nM; in experiment [2], 0.22 nM.
The like results for `CN1C(=N)N[C@](C)(c2cc(Nc3nccc4cc(Br)cnc34)ccc2F)CS1(=O)=O` [Example 2, 3-bromo-N-{4-fluoro-3-[(5R)-3-imino-2,5-dimethyl-1,1-dioxido-1,2,4-thiadiazinan-5-yl]phenyl}-1,7-naphthyridin-8-amine] were, in that order, 1.5 nM and 0.38 nM.
The like results for `CN1C(=N)N[C@](C)(c2cc(Nc3ncnc4cc(Br)cnc34)ccc2F)CS1(=O)=O` [Example 3, 7-bromo-N-{4-fluoro-3-[(5R)-3-imino-2,5-dimethyl-1,1-dioxido-1,2,4-thiadiazinan-5-yl]phenyl}pyrido[3,2-d]pyrimidin-4-amine] were, in that order, 2.8 nM and 0.81 nM.
`COc1cnc2c(Nc3cc([C@]4(C)CS(=O)(=O)N(C)C(=N)N4)c(F)cn3)nccc2c1` [Example 5, N-{5-fluoro-4-[(5R)-3-imino-2,5-dimethyl-1,1-dioxido-1,2,4-thiadiazinan-5-yl]pyridin-2-yl}-3-methoxy-1,7-naphthyridin-8-amine]: the inhibition constant (Ki) in experiment [1] (setting [4]) is 16.2 nM; in experiment [2], 4.5 nM.
The like results for `COc1cnc2c(Nc3ccc(F)c([C@]4(C)CS(=O)(=O)N(C)C(=N)N4)c3)ncnc2n1` [Example 13, N-{4-fluoro-3-[(5R)-3-imino-2,5-dimethyl-1,1-dioxido-1,2,4-thiadiazinan-5-yl]phenyl}-7-methoxypteridin-4-amine] were, in that order, 10.6 nM and 15.4 nM.
For `CN1C(=N)N[C@](C)(c2cc(N[C@@H]3CCc4ncc(Cl)cc43)ccc2F)CS1(=O)=O` [Example 15, (R)-5-(5-(((R)-3-chloro-6,7-dihydro-5H-cyc1openta[b]pyridin-5-yl)amino)-2-fluorophenyl)-3-imino-2,5-dimethyl-1,2,4-thiadiazinane 1,1-dioxide], in that order: 41.2 nM and 124 nM.
